Results on 2 compounds are retold here after the SangsterLogP compilation.

The nature of the data set: method code SF-AS, from DOI: 10.1016/0223-5234(96)88212-2. As to conditions: pH 7.4.

A word on the logD: it is the decadic logarithm of the distribution of all forms, ionised or not, between an organic phase and buffer at a given pH. High values mean a more lipophilic compound, low ones a more hydrophilic compound. `Clc1ccccc1N1CCN(CCCOn2nnc3ccccc32)CC1` yielded a logD of 3.6.

In turn, `Clc1ccccc1N1CCN(CCn2nnc3ccccc32)CC1` gave a logD of 3.35.
